Activity calls are given as the source filed them.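 How the source made its calls: active means maximal percent inhibition of the deubiquitinase OTUD3 of at least 30% across the tested doses; inactive means the rest.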
target: OTU domain-containing protein 3 (Homo sapiens) (UniProt Q5T2D3); assay: Validation of screening hits, potency titration, in vitro enzymatic, OTU domain-containing protein 3 DUB inhibitors (AID 1645868); settings: purified OTUD3, ubiquitin-rhodamine cleavage fluorescence, 2 h
Sequence (Q5T2D3 whole entry, looked up, the tested form may be a part): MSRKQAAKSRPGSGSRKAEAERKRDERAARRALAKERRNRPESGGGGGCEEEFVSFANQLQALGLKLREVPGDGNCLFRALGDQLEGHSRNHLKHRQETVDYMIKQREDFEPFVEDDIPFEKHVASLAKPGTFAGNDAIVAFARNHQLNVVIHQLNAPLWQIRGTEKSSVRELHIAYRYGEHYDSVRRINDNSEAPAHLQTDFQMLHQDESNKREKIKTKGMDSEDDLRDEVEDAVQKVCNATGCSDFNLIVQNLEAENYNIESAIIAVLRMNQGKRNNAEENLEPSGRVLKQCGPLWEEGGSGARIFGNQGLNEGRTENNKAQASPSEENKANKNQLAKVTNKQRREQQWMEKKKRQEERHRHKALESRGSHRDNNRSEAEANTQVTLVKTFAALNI

Compound	IC50
COc1ccc(OC)c(-n2c(SCC(=O)N3CCc4ccccc43)nnc2-c2cccc(S(=O)(=O)N(C)C)c2)c1	> 50 µM (inactive)
O=C(Nc1ccc2c(c1)OCCO2)c1ccc(N2CCCC2=O)cc1	> 50 µM (inactive)
COc1cc(Cl)ccc1Oc1ncnc2sc(C)c(C)c12	> 50 µM (inactive)
COc1cccc(-c2nc(C(N)=O)c3[nH]c(=O)n(-c4cccc(Cl)c4)c3n2)c1OC	> 50 µM (inactive)
CCn1cc2c(n1)c(=O)n(Cc1ccc(C)cc1)c(=O)n2CC(=O)Nc1ccc(F)cc1	22.7 µM
COc1cc(NC(=O)Cn2c(=O)n(-c3ccc(CC(=O)NC4CCCC4)cc3)c(=O)c3ccccc32)cc(OC)c1	> 50 µM (inactive)
Cc1ccc2cc3c(nc2n1)CCN(Cc1ccc(F)cc1)C3	> 50 µM (inactive)
COc1ccc(S(=O)(=O)N2CCc3ccccc32)cc1C(=O)Nc1ccc2[nH]c(=O)[nH]c2c1	19.5 µM
CCCc1nc2sc3c(N(CC)CC)ncnc3c2c2c1CCC2	> 50 µM (inactive)
CC1(C)CC(=O)C2=C(C1)Nc1ccccc1N(C(=O)C(F)(F)F)C2c1cccs1 (stereo unspecified)	> 50 µM (inactive)
O=c1[nH]c(C2CCN(S(=O)(=O)c3ccc(S(=O)(=O)NC4CCCCC4)cc3)CC2)nc2c1nnn2Cc1c(Cl)cccc1Cl	18.5 µM
CSc1ccccc1C(=O)Nc1sc2c(c1C(N)=O)CCC(C)C2 (stereo unspecified)	22.1 µM
CC(C)=CCC/C(C)=C/C[C@]1(O)C(=O)c2cc(O)cc(O)c2C(=O)[C@@]1(Cl)CC=C(C)C	> 50 µM (inactive)
COc1ccc(C(=O)Nc2ccc(S(=O)(=O)N3CCCCC3)cc2)cc1	> 50 µM (inactive)
COCCNC(=O)c1ccc(-c2ccc(N3CCCCC3)nc2)cc1	25 µM
CCC(=O)Nc1ccc2c(c1)nc(CSc1nccc(C)n1)n2CC	> 50 µM (inactive)
Cn1c(CCN2CCCC2)nc2cc(NS(=O)(=O)c3ccccc3)ccc21	> 50 µM (inactive)
COc1ccc(NC(=O)CSc2oc(-c3ccc(C)cc3)nc2S(=O)(=O)c2ccc(Br)cc2)c(OC)c1	> 50 µM (inactive)
Cc1cccc(C)c1NC(=O)Cn1c(=O)n(CCCCC(=O)NCc2ccc3c(c2)OCO3)c(=O)c2ccccc21	2.82 µM
O=C(Nc1ccc2c(c1)OCCO2)Nc1nnc(CC(=O)N2CCCCC2)s1	> 50 µM (inactive)
O=C(CCCn1c(=O)[nH]c2cc(Cl)ccc2c1=O)N1CCc2ccccc2C1	29 µM
Cc1cccc(OCCn2c(CCNC(=O)C3CCCCC3)nc3ccccc32)c1	32.8 µM
COc1ccc(C(=O)CCN2CCOCC2)cc1[N+](=O)[O-]	> 50 µM (inactive)

Compound	IC50
COc1ccc(/C=C/C(=O)Nc2c3c(nc4c2CCC4)CCCC3)cc1	23.6 µM
Cc1ccc(NC(=O)CSc2nc3c(cc2C#N)C(=O)CCC3)cc1	30.2 µM
O=C1c2c(O)c(Cl)cc3c2[C@@]2(Oc4cc(Cl)c(O)c5c4[C@]3(O2)[C@@H]2O[C@@H]2C5=O)[C@@H]2O[C@H]12	0.703 µM
NC(=O)c1nc(-c2cccc(F)c2)nc2c1[nH]c(=O)n2C1CCCCC1	> 50 µM (inactive)
Cc1ccc(OCCn2c(=N)n(C(C)C)c3ccccc32)cc1	> 50 µM (inactive)
O=C(c1ccsc1)N1CCC2(C1)Nc1cccnc1NC2=NC1CCCC1 (stereo unspecified)	> 50 µM (inactive)
COc1ccc(/C=C/C(=O)Nc2ccc3c(c2)OCCO3)cc1Br	> 50 µM (inactive)
CCOc1ccc(-c2cc3nc(C4CCN(C(=O)OC(C)(C)C)CC4)c(C(=O)Nc4cc(F)ccc4F)cn3n2)cc1	> 50 µM (inactive)
O=C(O)c1nccnc1C(=O)N1CCc2ccccc2C1	> 50 µM (inactive)
CCOC(=O)c1sc2nc(CC(=O)OC)nc(NCc3ccco3)c2c1C	> 50 µM (inactive)
COc1c2c(cc3cc(O)c4c(=O)cc(C)oc4c13)CCC2=O	> 50 µM (inactive)
NC(=O)Cn1c(=O)n(Cc2ccc(C(=O)NC3CCCC3)cc2)c(=O)c2ccccc21	> 50 µM (inactive)
Cc1cc(C)c(O)c(-c2cc(C(=O)Nc3ccccc3Cl)[nH]n2)c1	12.7 µM
COc1cccc(/C=C/C(=O)Nc2ccc(C)c(Cl)c2)c1	45.5 µM
Cc1c(CC(=O)N2CCN(c3ncccn3)CC2)c(=O)oc2cc(O)ccc12	34.1 µM
COC(=O)c1cc(C)sc1NC(=O)c1cccc(OC)c1OC	> 50 µM (inactive)
Cc1c(S(=O)(=O)NC2CCCCNC2=O)sc2ccc(Cl)cc12 (stereo unspecified)	> 50 µM (inactive)
O=C(Nc1cc(F)ccc1F)c1ccn(COc2ccc(F)c(Cl)c2)n1	> 50 µM (inactive)
Cc1cc(NCC2CC2)n2nc(Nc3cc(Cl)ccc3C)nc2n1	> 50 µM (inactive)
COc1cc(Cl)c(C)cc1NC(=O)Cn1c(=O)n(CC(=O)NCc2ccco2)c(=O)c2ccccc21	> 50 µM (inactive)
O=C(CN1C(=O)C2CCCC2=Nc2ccccc21)Nc1cc(F)ccc1F (stereo unspecified)	19 µM
Cc1cc(C)c2c(-n3cccc3)c(C(=O)NCCc3ccc(S(N)(=O)=O)cc3)sc2n1	> 50 µM (inactive)

Second part, the molecule after the results:

IC50	Compound
> 50 µM (inactive)	Cc1ccccc1OCCC(=O)Nc1cccc(S(=O)(=O)Nc2ccccc2Cl)c1
> 50 µM (inactive)	COc1ccc(CCn2cnc3c4ccccc4n(C)c3c2=O)cc1OC
> 50 µM (inactive)	CN1CCN(C(=O)c2cc(-c3ccn(-c4ccccc4)n3)n3ccccc23)CC1
> 50 µM (inactive)	Cc1ccc(C)c(NC(=O)CSc2nnc(-c3ccccn3)n2Cc2ccco2)c1
> 50 µM (inactive)	O=C(c1ccc(N2CCc3ccccc32)nn1)N1CCc2ccccc21
25 µM	O=C(CC1C(=O)Nc2nc(-c3ccccc3)nn21)Nc1cccc2ccccc12 (stereo unspecified)
49.9 µM	O=C(/C=C/c1ccc(F)cc1)N1CCC(Cc2ccccc2)CC1
> 50 µM (inactive)	COc1ccc(OC)c(NC(=O)c2ccc(-n3nnnc3SC)cc2)c1
1.92 µM	CCc1nc(SCC(=O)Nc2ccccc2Cl)c2oc3ccccc3c2n1
38.7 µM	c1ccc(-n2nnc(-c3noc(-c4ccccn4)n3)c2-c2ccncc2)cc1
27.3 µM	O=C(C(c1ccccc1)c1ccccc1)N1CCC(c2nc3c(nnn3Cc3c(F)cccc3Cl)c(=O)[nH]2)CC1
> 50 µM (inactive)	COc1cnc(-c2ccccn2)nc1Sc1ccc(C)cc1
> 50 µM (inactive)	Cc1ccc2nnc(-c3ccccc3)c(C(=O)N3CCN(c4ccccn4)CC3)c2c1
> 50 µM (inactive)	O=c1c(-c2nc(C3CC3)no2)cccn1Cc1c(F)cccc1Cl
> 50 µM (inactive)	O=C(Cc1c[nH]c2ccccc12)Nc1nc2ccccc2s1
26.6 µM	COc1ccc(NC(=O)C2CC(=O)Nc3cc(-c4ccccc4)nn32)cc1 (stereo unspecified)
> 50 µM (inactive)	COc1cccc(NC(=O)Cn2c(COc3ccccc3)nc3ccccc32)c1
> 50 µM (inactive)	O=C(Cn1c(=O)n(Cc2ccc3c(c2)OCO3)c(=O)c2ncccc21)c1ccccc1
> 50 µM (inactive)	CCn1c(=O)c(=O)[nH]c2cc(C(=O)Nc3cccc(-c4csc(C)n4)c3)ccc21
> 50 µM (inactive)	COc1ccc(Cn2c(SCc3ccc(C(=O)NCCc4ccccc4)cc3)nc3ccncc32)cc1
28.8 µM	O=C(Nc1ccc2ccccc2n1)c1ccc(Cl)cc1
> 50 µM (inactive)	Cc1ccccc1-c1noc(-c2ccccc2OCC(=O)NC(C)C)n1
> 50 µM (inactive)	N#Cc1ccc(COC(=O)c2ccc3ccccc3n2)cc1
> 50 µM (inactive)	CC(c1ccccc1)c1nc(-c2ccc(=O)[nH]c2)no1 (stereo unspecified)
> 50 µM (inactive)	Cc1cccc(C(=O)NCc2nc3ccccc3n2Cc2ccccc2C)c1
> 50 µM (inactive)	COC(=O)c1ccc(NC(=O)CSc2nnc(-c3ccc(O)cc3)n2Cc2ccco2)cc1

IC50	Compound
24 µM	c1ccc(-n2nnc(-c3noc(-c4cccnc4)n3)c2-c2ccncc2)cc1
32.2 µM	Cc1noc(-c2ccc(N3CCCC(C(=O)NCc4ccc(F)cc4)C3)nc2)n1 (stereo unspecified)
1.55 µM	Cn1c2ccccc2c(=O)c2c(=O)n(Cc3ccccc3)c(-c3ccco3)nc21
> 50 µM (inactive)	CC(=O)c1ccc(NC(=O)/C(=C/c2ccco2)n2nnnc2-c2ccccc2)cc1
> 50 µM (inactive)	O=C(O)COc1ccccc1/C=C1\CCc2c1nc1ccccc1c2C(=O)O
> 50 µM (inactive)	COc1ccc(-n2nnc(C(=O)Nc3ccc(F)cc3)c2C)cc1
> 50 µM (inactive)	O=c1ccc(-c2noc(Cc3c(F)cccc3Cl)n2)c[nH]1
14.2 µM	Cc1ccc2c(c1)c(=O)c(C(=O)c1ccccc1)cn2CC(=O)Nc1ccc2c(c1)OCCO2
20.6 µM	Cc1ccc(-c2nc(NC(=O)COc3ccc(Cl)cc3)no2)cc1
22.5 µM	Cn1c(COc2ccccc2)nnc1SCC(=O)Nc1ccc(N2CCOCC2)cc1
32.6 µM	Fc1cc(F)c2[nH]cc(-c3nnnn3-c3ccc4ccccc4c3)c2c1
> 50 µM (inactive)	CCN1C[C@@H]2C[C@]2(c2ccccc2OC)C(=O)c2ncccc21
23.9 µM	Cc1cccc(NC(=O)Nc2nnc(CC(=O)NCc3ccccc3)s2)c1
3.15 µM	CN(Cc1ccccc1)S(=O)(=O)c1ccc2[nH]cc(C(=O)NCc3cccs3)c(=O)c2c1
22.4 µM	Cn1c(=O)/c(=C/c2ccccc2)[nH]c(=O)/c1=C/c1ccccc1
> 50 µM (inactive)	Cc1sc(NC(=O)/C=C/c2ccco2)nc1-c1ccccc1
22 µM	Cc1ccc(C)c(NC(=O)CCc2nc(CSc3nc4ccccc4o3)no2)c1
> 50 µM (inactive)	Cc1ccc(C(=O)Nc2c(C(=O)N3CCN(c4ccccc4)CC3)[nH]c3ccccc23)cc1
> 50 µM (inactive)	Cc1c(C)n(-c2ccccc2)c2ncn(CC(=O)N(C)Cc3ccccc3)c(=O)c12
> 50 µM (inactive)	CC(C)(C)c1ccc(C(=O)Nc2ccc(Oc3cccnc3)nc2)cc1
18.4 µM	COc1ccc(-c2cc(N3CCC(NC(=O)c4ccccc4)C3)n[nH]2)cc1 (stereo unspecified)
25.5 µM	COc1ccccc1CNC(=O)CCCn1c(=O)c2ccccc2n(CC(=O)N2CCN(c3ccccc3)CC2)c1=O
13.1 µM	COc1ccc(CNC(=O)CCc2nnc3n(Cc4ccccc4Cl)c(=O)c4ccccc4n23)cc1
> 50 µM (inactive)	Fc1ccccc1N1CCN(c2ncc3c(n2)CCN(Cc2ccccn2)C3)CC1
> 50 µM (inactive)	CC(C)c1cc(Nc2cccc(F)c2)n2nc(-c3cccnc3)nc2n1

— PubChem BioAssay AID1645868 (Buhrlage Lab, Dana-Farber Cancer Institute and Novartis …, 2021)
